Values quoted from earlier work as cited in article PMC10797624, “Multitracer Approach to Understanding the Complexity of Reactive Astrogliosis in Alzheimer’s Brains” (ACS Chemical Neuroscience, 2023).

Assays:
[1] = test system: [^3H]-BU99008 binding sites; design: method as in PMID 33888872; details: L-deprenyl vs [^3H]-BU99008
MAO-B = test system: MAO-B; design: method as in PMID 32646880; details: small brain section autoradiography

| Compound | binding sites and affinities vs [^3H]-BU99008 [1] | displacement of [^18F]-SMBT-1 binding (MAO-B) |
| --- | --- | --- |
| C#CCN(C)[C@H](C)Cc1ccccc1 [L-deprenyl] | multiple binding sites with pico- and micromolar affinities |  |
| NCCNC(=O)c1ccc(Cl)cn1 [lazabemide] |  | fully displaced |
